# Experimental data reported in patent US20080021002A1, “VITAMIN D COMPOUNDS USED TO STABILIZE KIDNEY TRANSPLANTS” (priority 2000, published 2008).
# Experiments:
# [1] = tested on: Smad 6 protein; test: Western blot of renal graft lysates, Smad 6 protein; type: in vivo, rat; conditions: allograft recipients vs allogeneic untreated control group
# Excerpt: (§1) Renal lysates were subjected to SDS-PAGE and transferred to nitrocellulose membranes. The membranes were probed with specific anti-Smad antibodies and appropriated HRP-conjugated secondary antibodies. Signal was detected with chemilumensnce. Following exposure, x-ray films were scanned and the amount of expression compared to that of tubulin as an internal control using Scion Image software. FIG. 4 (A) describes R-Smad expression. FIG. 4 (B) described I-Smad expression.
# (§2) Western Blot Analysis: A portion of the snap frozen graft containing both cortex and medulla was ground with a mortar and pestle. For each 100 mg of tissue, the sample was resuspened in 400 ul of lysis buffer (10 mM Tris base, 150 mM NaCl, pH 8.0) containing protease inhibitors (P2714 1:1000. Sigma Chemical Co., St. Louis, Mo.) and homogenized (PowerGen 125, 1 minute). Triton X100 was then added to 1% and the sample place on ice, for 30 minutes. The solubilized sample was then spun at 4° C. for 15 minutes at 15,000×G. The supernatant was collected and stored at −80° C. Sample protein concentrations were determined using the Micro BCA assay (Pierce Chemical Co., Rockford, Ill.) according to manufacturer=s instructions, except that the assay was performed in half area plates combining 35 μl sample with 70 µl of reagent. […]
# [2] = tested on: Smad 3 protein; test: Western blot of renal graft lysates, Smad 3 protein; type: in vivo, rat; conditions: allogeneic recipients regardless of treatment, vs syngeneic controls (data not shown)
# Excerpt: as §1, §2
# [3] = tested on: Fisher to Lewis renal allograft; test: Fisher to Lewis renal allograft model of chronic allograft nephropathy (graft survival, serum creatinine, urinary protein, histology); type: in vivo, rat
# Protocol: Animals: Donor and recipients rats (greater than 250 gm) were obtained from Harlan Sprague Dawley, Indianapois, Ind. Recipient animals were placed on experimental diet containing 0.47% Ca 7 days prior to transplantation. Hullett et al., Transplantation 66:824-828, 1998. Recipients were divided into groups which received experimental diet alone or experimental diet containing 1,25-(OH)2D3 (250, 500, or 1000 ng/rat/day) or cyclosporine 1.5 or 5 mg/kg/day i.p. for 10 days. Animals were maintained on diet until the time or rejection or graft harvest at 24 weeks. All care and use of laboratory animals followed the NIH (NIH publication No. 86-23) guidelines. 1,25-(OH)2D3 was prepared, dissolved in ethanol and placed in the experimental diet as previously described.1,25-(OH)2D3 was the generous gift or Dr. Hector DeLuca, Department of Biochemistry, University of Wisconsin. Cyclosporine (Sandimmune i.v.; 1.5 or 5 mg/kg/day for 10 days,) was diluted in saline and given i.p. Transplantation: The Fisher to Lewis model of chronic allograft nephropathy has been previously described. Diamond et al., Transplantation 54:710-716, 1992. Briefly, donor kidneys obtained from male Fisher 344 rats were flushed with 10 ml cold University of Wisconsin preservation solution and stored at 4° C. while the recipient was prepared. […] Lewis male recipients were transplanted with either a Fisher 344 or Lewis kidney following left native nephrectomy. Briefly, the donor renal artery, vein and ureter were anastomosed to the recipient renal artery, vein and ureter. The right native kidney was removed 10 days post-transplant. Graft function was monitored by serum creatinine and urinary protein determinations. Urinary Protein: Proteinuria was assessed weekly. Animals were placed in metabolic cages for 6 hours and urine collected. Protein excretion was determined using a dye binding assay (quanTest red, Quantimetrix Corp., Redondo Beach, Calif.) according to manufacturer=s instructions with minor modifications. Briefly, 20 μl of the urine sample was diluted with 1×PBS in a two-fold series dilution in 96-well flat-bottom microtiter plates (Corning, N.Y.). […] Data was analyzed with Softmax Pro-software (Molecular Devices Corp.; Sunnyvale, Calif.). Graft survival was compared using the log rank test. Differences in mRNA and protein expression were compared by t-test.
# [4] = Effect of calcitriol on CsA and FK506 serum levels and dosages in transplant patients; type: in vivo, human
# Excerpt: Methodology-retrospective analysis: The University of Wisconsin transplant database was screened to identify any kidney and/or kidney-pancreas transplant recipient who received 1,25-dihydroxyvitamin D3 (calcitriol)peri-post-transplant. Clinical and demographic variables were abstracted from the database. Those patients with adequate follow-up data were included in the analysis (≧1year follow-up data following the initiation of calcitriol). Demographic variables included race, age, and nay history of parathyroidectomy as these patients would likely be receiving calcitriol at time of transplantation. The effect of calcitriol treatment on renal function was analyzed using general linear mixed modeling of the change in slope of renal function prior to and following the start of calcitriol therapy. […] Adverse events and hypercalcemia were noted by identifiers in the database and by serum calcium levels as recorded in the database. Hypercalcemia was defined as a serum calcium >10.5 mg/dl. […] Both of these agents have beneficial effects in prolonging allograft function by altering the ability for activated T cells to produce interleukin-2 (IL-2). However, both of these agents are also associated with drug-related nephrotoxicity that is manifested by characteristic histologic changes in the allograft, e.g. tubulointerstitial fibrosis, and loss of allograft function long-term.
# [5] = allograft, 500 ng/rat/day, FIG. 2B
smiles,measurement,setting,value
"C=C1/C(=C\C=C2/CCC[C@]3(C)[C@@H]([C@H](C)CCCC(C)(C)O)CC[C@@H]23)C[C@@H](O)C[C@@H]1O [calcitriol, 1,25-dihydroxyvitamin D3]",Smad 6 protein expression,[1],decreased
same,Smad 3 protein levels,[2],similar
same,Graft survival,"[3]; 250 ng/day in diet, p=0.04",prolonged graft survival was not as readily demonstrated
same,Graft survival,"[3]; 500 ng/rat/day in diet, vs allogeneic untreated controls, p=0.0009",significant prolongation of graft survival was sustained
same,Urinary protein,"[3]; 500 ng/rat/day monotherapy (data not shown), vs untreated allogeneic controls or CSA 1.5 mg/kg/d",significantly lowered
same,Calcium deposits in graft,[3]; 1000 ng,Significant calcium deposits
same,Graft survival,"[3]; 1000 ng/rat/day in diet, monotherapy, vs allogeneic untreated controls, p=0.0031",significantly prolonged
same,Urinary protein,"[3]; 1000 ng/rat/day monotherapy, p=0.004, vs untreated allogeneic controls or CSA 1.5 mg/kg/d (10 days)",significantly lowered
same,"Calcium deposition, histological examination",[3]; 250 and 500 ng/day groups,reduced calcium deposition
same,"Cellular infiltration, histological examination (Banff)",[3]; 250 and 500 ng/day groups,mild to moderate cellular infiltration (Banff IA or IIA)
same,Serum calcium levels,[3]; 250 and 500 ng/day groups (data not shown),remained elevated
same,Rise in serum creatinine at 2 weeks post-transplant,[3]; 500 or 250 ng/day,"Neither the 500 or the 250 ng/day dose of 1,25-(OH)2D3 prevented the rise"
same,Prolonged graft survival compared with low dose CSA (5 mg/kg/day for 10 days),[3]; 1000 or 500 ng/rat/day,not statistically different
same,Early acute rejection episode (within 2 weeks post-transplant),"[3]; CSA: short-term low dose monotherapy, 1,25-(OH)2D3 in diet",diminished
same,Cellular infiltration (H&E),[3]; [5],significantly decreased
same,Interstitial fibrosis (H&E),[3]; [5],little or no interstitial fibrosis
same,"Histological features of CAN (interstitial fibrosis, glomerulosclerosis, neointimal hyperplasia)","[3]; allografts, H&E, FIG. 2B",inhibited the development of these pathological features
same,Serum creatinine at 2 weeks post-transplant,[3]; p=0.035 versus untreated allogeneic control (FIG. 1B),only a slight increase
same,Collagen deposition (trichrome stain),"[3]; treated allograft recipients, FIG. 2D-E",decreased collagen deposition
same,Effect on CsA or FK506 dosages or serum drug levels,[4]; combined analysis of all Group 1 and Group 2 patients,no significant effect
same,Trends in mean CsA levels or variability in CsA levels,[4]; seven of the 26 Group 1 patients with serial CsA levels,No trends
